According to ChEMBL document CHEMBL6083254, “Optimization of B-Ring-Functionalized Antimalarial Tambjamines and Prodiginines” (J Med Chem, 2024):

Assays:
Plasmodium falciparum [1] = experiment: microbe, parasite or virus in culture; conditions: D6, 72 h
in vitro = conditions: human
Description: Selectivity index, ratio of IC50 for cytotoxicity against human HepG2 cells assessed as cell viability to IC50 for antiplasmodial activity against asexual erythrocytic stage of Plasmodium falciparum D6 assessed as inhibition of parasitic growth incubated

[2] = Metabolic stability in human liver microsomes assessed as half life measured upto 60 mins LC-MS analysis
Plasmodium yoelii = experiment: Antiplasmodial activity against asexual erythrocytic stage of Plasmodium yoelii infected in female CFI mouse model assessed as reduction in parasitemia at 25 mg/kg, po administered once daily for 4 days and measured on day 5 by Giemsa staining based microscopic analysis relative to control; assay type: functional; design: scale not given: the % may be the effect or the level left; conditions: time 5 day
Plasmodium falciparum [3] = experiment: microbe, parasite or virus in culture; conditions: Dd2, 72 h
HepG2 = experiment: Cytotoxicity against human HepG2 cells assessed as cell viability incubated for 72 hrs by MTT assay; assay type: toxicity, cell-based; conditions: hepg2
[4] = Metabolic stability in human liver microsomes assessed as intrinsic clearance measured upto 60 mins LC-MS analysis
[5] = Metabolic stability in mouse liver microsomes assessed as half life measured upto 60 mins LC-MS analysis
[6] = Metabolic stability in mouse liver microsomes assessed as intrinsic clearance measured upto 60 mins LC-MS analysis
[7] = Aqueous solubility of compound in PBS buffer at pH 7.4 incubated for 90 mins by UV-vis spectroscopic analysis; conditions: pH 7.4, 1.5 h
Plasmodium falciparum [8] = experiment: microbe, parasite or virus in culture; conditions: Tm90-C2B, 72 h

| IC50 (Plasmodium falciparum [1]) [nM] | half-life at 1 h [2] [min] | IC50 (Plasmodium falciparum [3]) [nM] | microsomal CLint at 1 h [4] [µL/min/mg] | half-life at 1 h [5] [min] | microsomal CLint at 1 h [6] [µL/min/mg] | solubility [7] [µM] | IC50 (Plasmodium falciparum [8]) [nM] | Compound | selectivity ratio (in vitro) | Activity (Plasmodium yoelii) [%] | IC50 (HepG2) [µM] |
| --- | --- | --- | --- | --- | --- | --- | --- | --- | --- | --- | --- |
| 3.51 | 12.2 | 3.82 | 114 | 18 | 76.8 | 157 | 5.42 | CC(C)OC1=CC(c2ccc[nH]2)=N/C1=C\NC1CCCCCC1.Cl | 1020 | 43.6 | 3.58 |
| > 2500 |  | > 2500 |  |  |  |  | > 2500 | CCCCCCCCCCCc1ccc(/C=C2\N=C(c3ccc[nH]3)C=C2OCc2ccc(OC(F)(F)F)cc2)[nH]1 |  |  |  |
| 48.7 |  | 58 |  |  |  |  | 52.1 | CC(C)CN/C=C1\N=C(c2ccc[nH]2)C=C1OCc1ccccc1.Cl | 182 | 0 | 8.86 |
|  |  | 37.7 |  |  |  |  | 34.2 | CC(C)CN/C=C1\N=C(c2ccc[nH]2)C=C1OC(C)C.Cl | 201 | 0 | 7.42 |
| 20.9 |  | 15.5 |  |  |  |  | 23.1 | CCCOC1=CC(c2ccc[nH]2)=N/C1=C\NCC(C)C.Cl | 365 | 75.4 | 7.63 |
| 1320 |  | 1400 |  |  |  |  | 2300 | CCCCCCCCCCCc1ccc(/C=C2\N=C(c3ccc[nH]3)C=C2Oc2ccc(Cl)cc2)[nH]1 |  |  |  |
| 1.17 | 32 | 1.45 | 42.8 | 43.5 | 31.8 | 52.2 | 1.61 | CCCOC1=CC(c2ccc[nH]2)=N/C1=C\NC12CC3CC(CC(C3)C1)C2.Cl | 2140 | 81.8 | 2.51 |
| > 2500 |  | > 2500 |  |  |  |  | > 2500 | CCCCCCCCCCCCN/C=C1\N=C(c2ccc[nH]2)C=C1Oc1ccccc1 |  |  |  |
|  | 35.2 | 0.632 | 39.4 | 53.2 | 26 | 77.7 | 0.348 | CCCOC1=CC(c2ccc[nH]2)=N/C1=C\NC1CCCCCC1.Cl | 7960 | 75.5 | 2.89 |
| 14.1 |  | 8.56 |  |  |  |  | 11.4 | Cl.Clc1ccc(COC2=CC(c3ccc[nH]3)=N/C2=C\NC23CC4CC(CC(C4)C2)C3)cc1 | 160 | 40 | 2.25 |
| 121 |  | 79.9 |  |  |  |  | 97.8 | Clc1ccc(COC2=CC(c3ccc[nH]3)=N/C2=C\NC2CCCCCC2)cc1 | 70 |  | 8.48 |
| > 2500 |  | > 2500 |  |  |  |  | > 2500 | CC(C)CN/C=C1\N=C(c2ccc[nH]2)C=C1Oc1ccc(Cl)cc1 |  |  |  |
| 7.33 | 35.7 | 5.27 | 38.8 | > 60 | 14.4 | 178 | 4.93 | CCOC1=CC(c2ccc[nH]2)=N/C1=C\NC1CCCCCC1.Cl |  | 8.5 | 2.26 |
| 193 |  | 242 |  |  |  |  | 204 | Cl.FC(F)(F)Oc1ccc(OC2=CC(c3ccc[nH]3)=N/C2=C\NC23CC4CC(CC(C4)C2)C3)cc1 | 146 | 83 | 28.2 |
| 6.45 | 19.3 | 7.49 | 71.7 | > 60 | 17.8 | 5.91 | 5.25 | C1=C(OCc2ccccc2)/C(=C/NC23CC4CC(CC(C4)C2)C3)N=C1c1ccc[nH]1.Cl | 171 | 63 | 1.1 |
| 1190 |  | > 2500 |  |  |  |  | 1690 | FC(F)(F)Oc1ccc(OC2=CC(c3ccc[nH]3)=N/C2=C\NC2CCCCCC2)cc1 |  |  |  |
|  |  |  |  |  |  |  |  | OC(c1cc(C(F)(F)F)nc2c(C(F)(F)F)cccc12)C1CCCCN1 (stereo unspecified) [MEFLOQUINE] |  |  | 13.7 |

| IC50 (Plasmodium falciparum [1]) [nM] | half-life at 1 h [2] [min] | IC50 (Plasmodium falciparum [3]) [nM] | microsomal CLint at 1 h [4] [µL/min/mg] | half-life at 1 h [5] [min] | microsomal CLint at 1 h [6] [µL/min/mg] | solubility [7] [µM] | IC50 (Plasmodium falciparum [8]) [nM] | Compound | selectivity ratio (in vitro) | Activity (Plasmodium yoelii) [%] | IC50 (HepG2) [µM] |
| --- | --- | --- | --- | --- | --- | --- | --- | --- | --- | --- | --- |
| 19 | 16.3 | 17.3 | 85.1 | > 60 | 16 | 15.8 | 21.3 | C1=C(OCc2ccccc2)/C(=C/NC2CCCCCC2)N=C1c1ccc[nH]1.Cl | 194 | 59.5 | 3.68 |
| 32.8 |  | 44.2 |  |  |  |  | 39 | CCCCCCCCCCCCN/C=C1\N=C(c2ccc[nH]2)C=C1OCCC.Cl | 135 | 16.4 | 4.44 |
| 517 |  | 681 |  |  |  |  | 561 | Clc1ccc(OC2=CC(c3ccc[nH]3)=N/C2=C\NC2CCCCCC2)cc1 |  |  |  |
| 410 |  | 340 |  |  |  |  | 305 | CCCCCCCCCCCCN/C=C1\N=C(c2ccc[nH]2)C=C1OCc1ccc(Cl)cc1 |  |  |  |
| > 2500 |  | > 2500 |  |  |  |  | > 2500 | CCCCCCCCCCCCN/C=C1\N=C(c2ccc[nH]2)C=C1Oc1ccc(OC(F)(F)F)cc1 |  |  |  |
| 2.01 | 45.4 | 1.82 | 30.6 | 56.4 | 24.6 | < 3.125 | 2.43 | Cl.FC(F)(F)Oc1ccc(COC2=CC(c3ccc[nH]3)=N/C2=C\NC23CC4CC(CC(C4)C2)C3)cc1 | 1860 | 81.8 | 3.74 |
| > 2500 |  | > 2500 |  |  |  |  | > 2500 | CC(C)CN/C=C1\N=C(c2ccc[nH]2)C=C1Oc1ccc(OC(F)(F)F)cc1 |  |  |  |
| 29.7 |  | 37.5 |  |  |  |  | 37.2 | CCCCCCCCCCCCN/C=C1\N=C(c2ccc[nH]2)C=C1OC(C)C.Cl | 103 | 0 | 3.07 |
| 354 |  | 317 |  |  |  |  | 276 | C1=C(Oc2ccccc2)/C(=C/NC2CCCCCC2)N=C1c1ccc[nH]1 |  |  |  |
| 89.7 |  | 62.3 |  |  |  |  | 68.8 | CC(C)CN/C=C1\N=C(c2ccc[nH]2)C=C1OCc1ccc(Cl)cc1 | 78 |  | 6.96 |
|  |  | 1690 |  |  |  |  | 884 | CC(C)CN/C=C1\N=C(c2ccc[nH]2)C=C1Oc1ccccc1 |  |  |  |
|  |  | 205 |  |  |  |  | 335 | CC(C)CN/C=C1\N=C(c2ccc[nH]2)C=C1OCc1ccc(OC(F)(F)F)cc1 |  |  |  |
| 413 |  | 350 |  |  |  |  | 320 | CCCCCCCCCCCCN/C=C1\N=C(c2ccc[nH]2)C=C1OCc1ccc(OC(F)(F)F)cc1 |  |  |  |
| 49.5 |  | 38.7 |  |  |  |  | 26.3 | Cl.FC(F)(F)Oc1ccc(COC2=CC(c3ccc[nH]3)=N/C2=C\NC2CCCCCC2)cc1 | 116 | 72.3 | 5.72 |
| 11.1 |  | 9.68 |  |  |  |  | 12.7 | CCCCCCCCCCCCN/C=C1\N=C(c2ccc[nH]2)C=C1OCC.Cl | 391 | 0 | 4.35 |
|  |  | 60.2 |  |  |  |  | 54.6 | CCCCCCCCCCCCN/C=C1\N=C(c2ccc[nH]2)C=C1OCc1ccccc1.Cl | 144 | 0 | 7.74 |
| 52.8 | > 60 | 22 | 6.72 | > 60 | 2.1 |  | 28.3 | Cl.Clc1ccc(OC2=CC(c3ccc[nH]3)=N/C2=C\NC23CC4CC(CC(C4)C2)C3)cc1 | 275 | 58 |  |

| Compound | IC50 (Plasmodium falciparum [1]) [nM] | half-life at 1 h [2] [min] | IC50 (Plasmodium falciparum [3]) [nM] | microsomal CLint at 1 h [4] [µL/min/mg] | half-life at 1 h [5] [min] | microsomal CLint at 1 h [6] [µL/min/mg] | solubility [7] [µM] | IC50 (Plasmodium falciparum [8]) [nM] | selectivity ratio (in vitro) | Activity (Plasmodium yoelii) [%] | IC50 (HepG2) [µM] |
| --- | --- | --- | --- | --- | --- | --- | --- | --- | --- | --- | --- |
| CCCCCCCCCCCCN/C=C1\N=C(c2ccc[nH]2)C=C1Oc1ccc(Cl)cc1 | > 2500 |  | > 2500 |  |  |  |  | > 2500 |  |  |  |
| CCCCCCCCCCCc1ccc(/C=C2\N=C(c3ccc[nH]3)C=C2OCc2ccc(Cl)cc2)[nH]1 |  |  | 939 |  |  |  |  | 1850 |  |  |  |
| CC(C)OC1=CC(c2ccc[nH]2)=N/C1=C\NC12CC3CC(CC(C3)C1)C2.Cl | 1.78 | 14.2 | 2 | 97.6 | 30.9 | 44.8 | 78 | 2.05 | 715 | 74.1 | 1.27 |
| CCCCCCCCCCCc1ccc(/C=C2\N=C(c3ccc[nH]3)C=C2Oc2ccc(OC(F)(F)F)cc2)[nH]1 | > 2500 |  | > 2500 |  |  |  |  | > 2500 |  |  |  |
| COC1=CC(c2ccc[nH]2)=N/C1=C\NCC(C)C | 112 |  | 92.8 |  |  |  |  | 103 | 170 | 18.2 | 19.1 |
| CCOC1=CC(c2ccc[nH]2)=N/C1=C\NCC(C)C.Cl | 30 |  | 46.7 |  |  |  |  | 41.6 | 154 | 0 | 4.62 |
| CCCCCCCCCCCCN/C=C1\N=C(c2ccc[nH]2)C=C1OC | 65.9 |  | 69.9 |  |  |  |  | 96.9 | 93 |  | 6.1 |
